Paper PMC6982354, “Promising New Inhibitors of Tyrosyl-DNA Phosphodiesterase I (Tdp 1) Combining 4-Arylcoumarin and Monoterpenoid Moieties as Components of Complex Antitumor Therapy” (International Journal of Molecular Sciences, 2019)

tested on: Krebs-2 carcinoma; assay: Influence on antitumor effect of tpc, Krebs-2 ascites tumor model; type: in vivo, mice; conditions: tpc only, 0.5 mg/kg i.p. (group 2); control 1750 million per mouse
Procedure: A study of the influence of 3ba on the antitumor effect of tpc (topotecan) was performed using a murine Krebs-2 carcinoma model. An ascitic tumor model combines the advantages of in vitro and in vivo approaches in studying the cytotoxic effect of compounds, since ascitic cells grow in the context of the organism (in vivo), and the intraperitoneal administration of drug ensures its direct contact with tumor cells (in vitro). The experiments were performed using female C57BL/6 mice, which were injected intraperitoneally with 2 × 10^5 ascitic cells on day zero. The mice were divided into six groups of ten animals each.
(§1) Lab animals. Thre-e to four-month-old male and female C57Bl/6 mice from the breeding colony of the Institute of Cytology and Genetics, SB RAS, were used in the study. The animals were kept on sawdust in plastic cages with 5–7 mice per cage, with free access to ground food (“Laboratorkorm”, Moskow, Russia) and tap water. All experiments were performed in accordance with protocols approved by the Animal Care and Use Committee of the Institute of Cytology and Genetics. Also, all experimental procedures were performed in accordance with the Directive 2010/63/EU for animal experiments.
(§2) Tumor models. The experimental tumor used was Lewis Lung Carcinoma (LLC) and Krebs-2. The animals were treated with tpc and the Tdp1 inhibitor 3ba two days after tumor transplantation. The tumor was transplanted into the muscles of the thigh by 0.2 million cells per mouse. Tpc (Sindan Pharma SRL, Romania) was administered intraperitoneally at a single dose of 0.5 mg/kg; Tdp1 inhibitor 3ba was administrated intraperitoneally at a single dose of 20, 40, or 80 mg/kg (for Krebs-2), or 120 mg/kg (for LLC) in 15% dimethyl sulfoxide (DMSO)–10% Tween-80 suspension in water (0.2 mL of suspension per mouse) simultaneously with tpc. Control mice were injected with a DMSO-Tween-80 mixture into the stomach.
(§3) Statistical analysis. The experimenter measuring and calculating the primary animal data (tumor size, lifespan) was blinded. After unblinding, the animal data were statistically processed using oneway ANOVA. Post-hoc testing was completed using Turkey’s Honestly Significant Difference (HSD). p < 0.05 was considered to be statistically significant. The statistical package […] version 12.5 was used for analysis. All results are expressed as mean ± SEM.

| Compound | number of tumor cells in ascites [mln] |
| --- | --- |
| CC[C@@]1(O)C(=O)OCc2c1cc1n(c2=O)Cc2cc3c(CN(C)C)c(O)ccc3nc2-1 [tpc, topotecan, reference compound] | 950 |

molecular target: T1, Tdp1 (Homo sapiens, UniProt Q9NUW8); assay: Real-time detection of Tdp1 activity (FAM/BHQ1 oligonucleotide biosensor); type: biochemical; conditions: Tdp1 inhibition, 6-point concentration response curve
T1 construct: made in house
T1 sequence (Q9NUW8 whole entry): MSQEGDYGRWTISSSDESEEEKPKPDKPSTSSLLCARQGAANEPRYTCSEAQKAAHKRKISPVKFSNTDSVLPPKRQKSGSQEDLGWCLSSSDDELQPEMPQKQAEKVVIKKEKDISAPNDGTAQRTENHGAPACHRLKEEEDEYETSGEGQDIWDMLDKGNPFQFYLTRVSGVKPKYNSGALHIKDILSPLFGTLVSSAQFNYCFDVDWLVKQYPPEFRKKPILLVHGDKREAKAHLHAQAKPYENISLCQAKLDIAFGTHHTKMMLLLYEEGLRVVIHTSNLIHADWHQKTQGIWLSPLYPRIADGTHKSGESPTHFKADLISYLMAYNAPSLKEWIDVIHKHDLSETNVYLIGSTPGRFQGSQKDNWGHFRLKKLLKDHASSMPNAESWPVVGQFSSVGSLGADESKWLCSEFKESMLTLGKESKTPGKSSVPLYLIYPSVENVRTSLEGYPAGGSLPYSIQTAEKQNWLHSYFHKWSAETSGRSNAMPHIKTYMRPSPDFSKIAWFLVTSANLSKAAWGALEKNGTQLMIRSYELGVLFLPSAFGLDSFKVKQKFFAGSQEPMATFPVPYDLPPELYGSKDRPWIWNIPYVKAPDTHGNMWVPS
Procedure: A previously designed, real-time, hexadecameric oligonucleotide biosensor with 5(6)-carboxyfluorescein (FAM) at the 5′ end and fluorophore quencher BHQ1 (Black Hole Quencher-1) at the 3′-end was used to determine the inhibitory properties of the new compounds.
Real-Time Detection of Tdp1 Activity. The Tdp1 activity measurements were carried out as described. […] Tdp1 inhibition was calculated by comparing the rate of increase in fluorescence in the presence of the compound to that of DMSO control wells. IC50 values were determined using a 6-point concentration response curve. The data were imported into the MARS Data Analysis 2.0 program (BMG LABTECH), and the slope during the linear phase (here data from 0 to 7 min) was calculated.

| IC50 [nM] | Compound |
| --- | --- |
| 490 ± 140 | CC(C)=CCC/C(C)=C/COc1ccc2c(-c3ccccc3)cc(=O)oc2c1 [3aa, (E)-7-(3,7-Dimethylocta-2,6-dienyloxy)-4-phenyl-2H-chromen-2-one] |
| 410 ± 120 | CC1(C)[C@H]2CC=C(CCOc3ccc4c(-c5ccccc5)cc(=O)oc4c3)[C@@H]1C2 [3ab, 7-(2-((1R,5S)-6,6-Dimethylbicyclo[3 1.1]hept-2-en-2-yl)ethoxy)-4-phenyl-2H-chromen-2-one] |
| 460 ± 160 | CC1(C)[C@H]2CC=C(COc3ccc4c(-c5ccccc5)cc(=O)oc4c3)[C@@H]1C2 [3ac, 7-(((1R,5S)-6,6-Dimethylbicyclo[3.1.1]hept-2-en-2-yl)methoxy)-4-phenyl-2H-chromen-2-one] |
| 480 ± 110 | CC1(C)[C@@H]2CC=C(COc3ccc4c(-c5ccccc5)cc(=O)oc4c3)[C@H]1C2 [3ad, 7-(((1S,5R)-6,6-Dimethylbicyclo[3.1.1]hept-2-en-2-yl)methoxy)-4-phenyl-2H-chromen-2-one] |
| 7500 ± 700 | CC1(C)[C@H]2CC=C(CCOc3ccc4c(-c5ccc(F)cc5)cc(=O)oc4c3)[C@@H]1C2 [3bb, 7-(2-((1R,5S)-6,6-Dimethylbicyclo[3.1.1]hept-2-en-2-yl)ethoxy)-4-(4-fluorophenyl)-2H-chromen-2-one] |
| 990 ± 300 | CC1(C)[C@H]2CC=C(COc3ccc4c(-c5ccc(F)cc5)cc(=O)oc4c3)[C@@H]1C2 [3bc, 7-(((1R,5S)-6,6-Dimethylbicyclo[3.1.1]hept-2-en-2-yl)methoxy)-4-(4-fluorophenyl)-2H-chromen-2-one] |
| 1030 ± 580 | CC1(C)[C@@H]2CC=C(COc3ccc4c(-c5ccc(F)cc5)cc(=O)oc4c3)[C@H]1C2 [3bd, 7-(((1S,5R)-6,6-Dimethylbicyclo[3.1.1]hept-2-en-2-yl)methoxy)-4-(4-fluorophenyl)-2H-chromen-2-one] |
| 900 ± 370 | CC(C)=CCC/C(C)=C/COc1ccc2c(-c3ccc(Br)cc3)cc(=O)oc2c1 [3ca, (E)-4-(4-Bromophenyl)-7-(3,7-dimethylocta-2,6-dienyloxy)-2H-chromen-2-one] |
| 590 ± 70 | CC1(C)[C@H]2CC=C(CCOc3ccc4c(-c5ccc(Br)cc5)cc(=O)oc4c3)[C@@H]1C2 [3cb, 4-(4-Bromophenyl)-7-(2-((1R,5S)-6,6-dimethylbicyclo[3.1.1]hept-2-en-2-yl)ethoxy)-2H-chromen-2-one] |
| 3230 ± 350 | CC1(C)[C@H]2CC=C(COc3ccc4c(-c5ccc(Br)cc5)cc(=O)oc4c3)[C@@H]1C2 [3cc, 4-(4-Bromophenyl)-7-(((1R,5S)-6,6-dimethylbicyclo[3.1.1]hept-2-en-2-yl)methoxy)-2H-chromen-2-one] |
| 430 ± 50 | CC1(C)[C@@H]2CC=C(COc3ccc4c(-c5ccc(Br)cc5)cc(=O)oc4c3)[C@H]1C2 [3cd, 4-(4-Bromophenyl)-7-(((1S,5R)-6,6-dimethylbicyclo[3.1.1]hept-2-en-2-yl)methoxy)-2H-chromen-2-one] |
| 910 ± 130 | COc1ccc(-c2cc(=O)oc3cc(OCCC4=CC[C@H]5C[C@@H]4C5(C)C)ccc23)cc1 [3db, 7-(2-((1R,5S)-6,6-Dimethylbicyclo[3.1.1]hept-2-en-2-yl)ethoxy)-4-(4-methoxyphenyl)-2H-chromen-2-one] |
| 590 ± 150 | COc1ccc(-c2cc(=O)oc3cc(OCC4=CC[C@H]5C[C@@H]4C5(C)C)ccc23)cc1 [3dc, 7-(((1R,5S)-6,6-Dimethylbicyclo[3.1.1]hept-2-en-2-yl)methoxy)-4-(4-methoxyphenyl)-2H-chromen-2-one] |
| 590 ± 60 | COc1ccc(-c2cc(=O)oc3cc(OCC4=CC[C@@H]5C[C@H]4C5(C)C)ccc23)cc1 [3dd, 7-(((1S,5R)-6,6-Dimethylbicyclo[3.1.1]hept-2-en-2-yl)methoxy)-4-(4-methoxyphenyl)-2H-chromen-2-one] |
| 2400 ± 800 | O=c1cc(-c2ccc(Br)cc2)c2ccc(OCc3ccccc3)cc2o1 [10c, 7-(Benzyloxy)-4-(4-bromophenyl)-2H-chromen-2-one] |
| 3310 ± 980 | COc1ccc(-c2cc(=O)oc3cc(OCc4ccccc4)ccc23)cc1 [10d, 7-(Benzyloxy)-4-(4-methoxyphenyl)-2H-chromen-2-one] |

same assay, conditions: compared with the other derivatives of the series

| Tdp1 inhibitory activity (in words) | Compound |
| --- | --- |
| slightly less active | CC1(C)[C@H]2CC=C(COc3ccc4c(-c5ccccc5)cc(=O)oc4c3)[C@@H]1C2 [3ac, 7-(((1R,5S)-6,6-Dimethylbicyclo[3.1.1]hept-2-en-2-yl)methoxy)-4-phenyl-2H-chromen-2-one] |
| markedly lower activity | CC1(C)[C@H]2CC=C(CCOc3ccc4c(-c5ccc(F)cc5)cc(=O)oc4c3)[C@@H]1C2 [3bb, 7-(2-((1R,5S)-6,6-Dimethylbicyclo[3.1.1]hept-2-en-2-yl)ethoxy)-4-(4-fluorophenyl)-2H-chromen-2-one] |

tested on: Lewis carcinoma; assay: Lifespan of mice with ascites variant of Lewis carcinoma; type: in vivo; conditions: monotherapy at selected doses (tpc 0.5 mg/kg or 3ba 120 mg/kg), unreliable, p > 0.05
Procedure: We then examined the effect of 3ba in combination with tpc on the lifespan of mice. C57BL/6 mice were intraperitoneally inoculated with the ascites variant of Lewis carcinoma. Group 1: control without treatment; group 2: tpc 0.5 mg/kg intraperitoneally; group 3: tpc and 3ba intraperitoneally 120 mg/kg; and group 4: 3ba 120 mg/kg only.
as §1, §2, §3

| Compound | prolongation of life |
| --- | --- |
| CC[C@@]1(O)C(=O)OCc2c1cc1n(c2=O)Cc2cc3c(CN(C)C)c(O)ccc3nc2-1 [tpc, topotecan, reference compound] | 13–19% |
